Test results as given in US9725449B2, “Tricyclic compounds as anticancer agents” (BRISTOL-MYERS SQUIBB COMPANY, priority 2015, dated 2017).

What follows are molecules tested against BRD4 (Homo sapiens, UniProt O60885) (assay: Time resolved fluorescence resonance energy transfer (TR-FRET) binding assay, bromodomain BRD4). Settings: one of the FRET assays described; read-out: FRET BRD4 IC50.

Row | SMILES | IC50 [nM]
1 | [2H]C([2H])([2H])c1nnn(C)c1-c1cnc2c3c(OC)nc(N4CCC(F)(F)CC4)cc3n([C@H](c3ccccc3)C3CCOCC3)c2c1 [Example 343, 11-(4,4-Difluoropiperidin-1-yl)-13-methoxy-5-[4-(^2H3)methyl-1-methyl-1H-1,2,3-triazol-5-yl]-8-[(S)-oxan-4-yl(phenyl)methyl]-3,8,12-triazatricyclo[7.4.0.0^2,^7]trideca-1(13),2(7),3,5,9,11-hexaene] | < 1
2 | [2H]C([2H])([2H])c1nnn(C)c1-c1cnc2c3c(N(C)CC)ncc(S(C)(=O)=O)c3n([C@H](c3ccccc3)C3CCOCC3)c2c1 [Example 115, N-Ethyl-10-methanesulfonyl-N-methyl-5-[4-(^2H3)methyl-1-methyl-1H-1,2,3-triazol-5-yl]-8-[(S)-oxan-4-yl(phenyl)methyl]-3,8,12-triazatricyclo[7.4.0.0^2,^7]trideca-1(13),2(7),3,5,9,11-hexaen-13-amine] | < 1
3 | CC(=O)c1cc2c(cn1)c1ncc(-c3c(C)nnn3C)cc1n2[C@H](c1ccc(F)cc1)C1CCOCC1 [Example 337] | < 10
4 | [2H]C([2H])([2H])c1nnn(C)c1-c1cnc2c3c(OC)ncc(S(C)(=O)=O)c3n(C(c3ncccc3F)C3CCOCC3)c2c1 (stereo not drawn) [Example 65, 8-[(3-Fluoropyridin-2-yl)(oxan-4-yl)methyl]-10-methanesulfonyl-13-methoxy-5-[4-(^2H3)methyl-1-methyl-1H-1,2,3-triazol-5-yl]-3,8,12-triazatricyclo[7.4.0.0^2,^7]trideca-1(13),2(7),3,5,9,11-hexaene] | < 1500
5 | [2H]C([2H])([2H])c1nnn(C)c1-c1cnc2c3c(OCC(C)C)ncc(S(C)(=O)=O)c3n([C@H](c3ccccc3)C3CCOCC3)c2c1 [Example 108, 10-Methanesulfonyl-5-[4-(^2H3)methyl-1-methyl-1H-1,2,3-triazol-5-yl]-13-(2-methylpropoxy)-8-[(S)-oxan-4-yl(phenyl)methyl]-3,8,12-triazatricyclo[7.4.0.0^2,^7]trideca-1(13),2(7),3,5,9,11-hexaene] | < 10
6 | [2H]C([2H])([2H])c1nnn(C)c1-c1cnc2c3c(OC)ncc(C(C)(C)O)c3n(C(c3ccccc3)C3CCC(F)(F)CC3)c2c1 (single isomer, unassigned) [Example 281, 2-{8-[(4,4-Difluorocyclohexyl)(phenyl)methyl]-13-methoxy-5-[4-(^2H3)methyl-1-methyl-1H-1,2,3-triazol-5-yl]-3,8,12-triazatricyclo[7.4.0.0^2,^7]trideca-1(9),2,4,6,10,12-hexaen-10-yl}propan-2-ol] | < 10
7 | COc1ncc(C(C)(C)O)c2c1c1ncc(-c3c(C)nnn3C)cc1n2[C@H](c1ccccc1)C1CCOCC1 [Example 142, 2-[5-(Dimethyl-1H-1,2,3-triazol-5-yl)-13-methoxy-8-[(S)-oxan-4-yl(phenyl)methyl]-3,8,12-triazatricyclo[7.4.0.0^2,^7]trideca-1(9),2,4,6,10,12-hexaen-10-yl]propan-2-ol] | < 10
8 | [2H]C([2H])([2H])c1nnn(C)c1-c1cnc2c3c(OCCO)ncc(S(C)(=O)=O)c3n([C@H](c3ccccc3F)C3CCOCC3)c2c1 [Example 63, 2-({8-[(S)-(2-Fluorophenyl)(oxan-4-yl)methyl]-10-methanesulfonyl-5-[4-(^2H3)methyl-1-methyl-1H-1,2,3-triazol-5-yl]-3,8,12-triazatricyclo[7.4.0.0^2,^7]trideca-1(13),2(7),3,5,9,11-hexaen-13-yl}oxy)ethan-1-ol] | < 1
9 | [2H]C([2H])([2H])c1nnn(C)c1-c1cnc2c3c(OC)ncc(CO)c3n([C@H](c3ccccc3)C3CCOCC3)c2c1 [Example 139, {13-methoxy-5-[4-(^2H3)methyl-1-methyl-1H-1,2,3-triazol-5-yl]-8-[(S)-oxan-4-yl(phenyl)methyl]-3,8,12-triazatricyclo[7.4.0.0^2,^7]trideca-1(9),2,4,6,10,12-hexaen-10-yl}methanol] | < 10
10 | Cc1nnn(C)c1-c1cnc2c3c(F)nccc3n([C@H](c3ccccc3)C3CCOCC3)c2c1 [Example 3, 5-(Dimethyl-1H-1,2,3-triazol-5-yl)-13-fluoro-8-[(S)-oxan-4-yl(phenyl)methyl]-3,8,12-triazatricyclo[7.4.0.0^2,^7]trideca-1(13),2(7),3,5,9,11-hexaene] | < 10
11 | Cc1cccnc1C(C1CCOCC1)n1c2cc(-c3c(C)nnn3C)ncc2c2ncc(C(C)(C)O)cc21 (single isomer, unassigned) [Example 373] | < 1500
12 | Cc1nnn(C)c1-c1cnc2c3c(F)ncc(Cl)c3n([C@H](c3ccccc3)C3CCOCC3)c2c1 [Example 37, 10-Chloro-5-(dimethyl-1H-1,2,3-triazol-5-yl)-13-fluoro-8-[(S)-oxan-4-yl(phenyl)methyl]-3,8,12-triazatricyclo[7.4.0.0^2,^7]trideca-1(13),2(7),3,5,9,11-hexaene] | < 10
13 | Cc1nnn(C)c1-c1cnc2c3ccc(N4CCS(=O)(=O)C(C)C4)nc3n([C@H](c3ccccc3)C3CCOCC3)c2c1 (stereo partly drawn) [Example 213, 4-[5-(Dimethyl-1H-1,2,3-triazol-5-yl)-8-[(S)-oxan-4-yl(phenyl)methyl]-3,8,10-triazatricyclo[7.4.0.0^2,^7]trideca-1(9),2(7),3,5,10,12-hexaen-11-yl]-2-methyl-1λ^6,4-thiomorpholine-1,1-dione] | < 1
14 | [2H]C([2H])([2H])c1nnn(C)c1-c1cnc2c3c(OC)ncc(S(C)(=O)=O)c3n(C(c3c(F)cc(F)cc3F)C3CCOCC3)c2c1 (single isomer, unassigned) [Example 84, 10-Methanesulfonyl-13-methoxy-5-[4-(^2H3)methyl-1-methyl-1H-1,2,3-triazol-5-yl]-8-[oxan-4-yl(2,4,6-trifluorophenyl)methyl]-3,8,12-triazatricyclo[7.4.0.0^2,^7]trideca-1(13),2(7),3,5,9,11-hexaene] | < 1500
15 | [2H]C([2H])([2H])c1nnn(C)c1-c1cnc2c3ccc(-c4c(C([2H])([2H])[2H])nnn4C)nc3n([C@H](c3ccccc3F)C3CCOCC3)c2c1 [Example 232, 8-[(S)-(2-Fluorophenyl)(oxan-4-yl)methyl]-5,11-bis[4-(^2H3)methyl-1-methyl-1H-1,2,3-triazol-5-yl]-3,8,10-triazatricyclo[7.4.0.0^2,^7]trideca-1(13),2(7),3,5,9,11-hexaene] | < 10
16 | [2H]C([2H])([2H])c1nnn(C)c1-c1cnc2c3ccc(N4C[C@@H](C)O[C@@H](C)C4)nc3n([C@H](c3ccccc3F)C3CCOCC3)c2c1 [Example 237, 11-[(2R,6S)-2,6-Dimethylmorpholin-4-yl]-8-[(S)-(2-fluorophenyl)(oxan-4-yl)methyl]-5-[4-(^2H3)methyl-1-methyl-1H-1,2,3-triazol-5-yl]-3,8,10-triazatricyclo[7.4.0.0^2,^7]trideca-1(13),2(7),3,5,9,11-hexaene] | < 1
17 | [2H]C([2H])([2H])c1onc(C)c1-c1cnc2c3c(OC)ncc(S(=O)(=O)C([2H])([2H])[2H])c3n(C(c3ncccc3F)C3CCOCC3)c2c1 (stereo not drawn) [Example 66, 8-[(3-Fluoropyridin-2-yl)(oxan-4-yl)methyl]-10-(^2H3)methanesulfonyl-13-methoxy-5-[5-(^2H3)methyl-3-methyl-1,2-oxazol-4-yl]-3,8,12-triazatricyclo[7.4.0.0^2,^7]trideca-1(13),2(7),3,5,9,11-hexaene] | < 10
18 | Cc1noc(C)c1-c1cnc2c3ccc(S(C)(=O)=O)nc3n([C@H](c3ccccc3F)C3CCOCC3)c2c1 [Example 222, 5-(Dimethyl-1,2-oxazol-4-yl)-8-[(S)-(2-fluorophenyl)(oxan-4-yl)methyl]-11-methanesulfonyl-3,8,10-triazatricyclo[7.4.0.0^2,^7]trideca-1(13),2(7),3,5,9,11-hexaene] | < 10
19 | COCCNc1nccc2c3ncc(-c4c(C)nnn4C)cc3n([C@H](c3ccccc3)C3CCOCC3)c12 [Example 9, 5-(Dimethyl-1H-1,2,3-triazol-5-yl)-N-(2-methoxyethyl)-8-[(S)-oxan-4-yl(phenyl)methyl]-3,8,11-triazatricyclo[7.4.0.0^2,^7]trideca-1(13),2(7),3,5,9,11-hexaen-10-amine] | < 10
20 | Cc1nnn(C)c1-c1cnc2c3cnc(Cl)cc3n([C@H](c3ccc(F)cc3)C3CCOCC3)c2c1 [Example 322] | < 10
21 | Cc1nnn(C)c1-c1cnc2c3c(OC(C)C)ncc(S(C)(=O)=O)c3n([C@H](c3ccccc3)C3CCOCC3)c2c1 [Example 57, 5-(Dimethyl-1H-1,2,3-triazol-5-yl)-10-methanesulfonyl-8-[(S)-oxan-4-yl(phenyl)methyl]-13-(propan-2-yloxy)-3,8,12-triazatricyclo[7.4.0.0^2,^7]trideca-1(13),2(7),3,5,9,11-hexaene] | < 1
22 | Cc1nnn(C)c1-c1cnc2c3ccc(S(C)(=O)=O)nc3n([C@H](c3ccccc3F)C3CCOCC3)c2c1 [Example 221, 5-(Dimethyl-1H-1,2,3-triazol-5-yl)-8-[(S)-(2-fluorophenyl)(oxan-4-yl)methyl]-11-methanesulfonyl-3,8,10-triazatricyclo[7.4.0.0^2,^7]trideca-1(13),2(7),3,5,9,11-hexaene] | < 10
23 | [2H]C([2H])([2H])c1nnn(C)c1-c1cnc2c3c(OC)ncc(S(C)(=O)=O)c3n([C@H](c3ccccc3)C3CCC(F)(F)CC3)c2c1 [Example 81, 8-[(S)-(4,4-Difluorocyclohexyl)(phenyl)methyl]-10-methanesulfonyl-13-methoxy-5-[4-(^2H3)methyl-1-methyl-1H-1,2,3-triazol-5-yl]-3,8,12-triazatricyclo[7.4.0.0^2,^7]trideca-1(13),2(7),3,5,9,11-hexaene] | < 1
24 | [2H]C([2H])([2H])c1nnn(C)c1-c1cnc2c3ccc(-c4c(C([2H])([2H])[2H])nnn4C)nc3n(C(c3ncccc3F)C3CCOCC3)c2c1 (stereo not drawn) [Example 247, 8-[(3-Fluoropyridin-2-yl)(oxan-4-yl)methyl]-5,11-bis[4-(^2H3)methyl-1-methyl-1H-1,2,3-triazol-5-yl]-3,8,10-triazatricyclo[7.4.0.0^2,^7]trideca-1(13),2(7),3,5,9,11-hexaene] | < 1
